Test results reported in ChEMBL document CHEMBL1949518, “Synthesis and biological evaluation of some new 2-pyrazolines bearing benzene sulfonamide moiety as potential anti-inflammatory and anti-cancer agents” (Eur J Med Chem, 2011).

Key:
Type in all cases: functional
Rattus norvegicus = assay: Antiinflammatory activity in Wistar rat assessed as inhibition of carrageenan-induced paw edema at 20 mg/kg, po administered 30 mins before carrageenan challenge measured after 3 hrs
CCRF-CEM = assay: Antiproliferative activity against human CCRF-CEM cells assessed as cell growth at 10^-5 M after 48 hrs by SRB assay relative to control; conditions: read-out: Activity
HL-60(TB) = assay: Antiproliferative activity against human HL-60(TB) cells assessed as cell growth at 10^-5 M after 48 hrs by SRB assay relative to control; conditions: HL-60, 48 h, read-out: Activity
K562 = assay: Antiproliferative activity against human K562 cells assessed as cell growth at 10^-5 M after 48 hrs by SRB assay relative to control; conditions: K562, 48 h, read-out: Activity
SR = assay: Antiproliferative activity against human SR cells assessed as cell growth at 10^-5 M after 48 hrs by SRB assay relative to control; conditions: read-out: Activity
HOP-62 = assay: Antiproliferative activity against human HOP62 cells assessed as cell growth at 10^-5 M after 48 hrs by SRB assay relative to control; conditions: HOP-62, 48 h, read-out: Activity
NCI-H226 = assay: Antiproliferative activity against human NCI-H226 cells assessed as cell growth at 10^-5 M after 48 hrs by SRB assay relative to control; conditions: NCI-H226, 48 h, read-out: Activity
NCI-H322M = assay: Antiproliferative activity against human NCI-H322M cells assessed as cell growth at 10^-5 M after 48 hrs by SRB assay relative to control; conditions: read-out: Activity
NCI-H460 = assay: Antiproliferative activity against human NCI-H460 cells assessed as cell growth at 10^-5 M after 48 hrs by SRB assay relative to control; conditions: NCI-H460, 48 h, read-out: Activity
HCT-116 = assay: Antiproliferative activity against human HCT116 cells assessed as cell growth at 10^-5 M after 48 hrs by SRB assay relative to control; conditions: HCT-116, 48 h, read-out: Activity
HCT-15 = assay: Antiproliferative activity against human HCT15 cells assessed as cell growth at 10^-5 M after 48 hrs by SRB assay relative to control; conditions: HCT-15, 48 h, read-out: Activity
KM12 = assay: Antiproliferative activity against human KM12 cells assessed as cell growth at 10^-5 M after 48 hrs by SRB assay relative to control; conditions: KM12, 48 h, read-out: Activity
SW-620 = assay: Antiproliferative activity against human SW620 cells assessed as cell growth at 10^-5 M after 48 hrs by SRB assay relative to control; conditions: SW-620, 48 h, read-out: Activity
SF-268 = assay: Antiproliferative activity against human SF268 cells assessed as cell growth at 10^-5 M after 48 hrs by SRB assay relative to control; conditions: SF-268, 48 h, read-out: Activity
SF-295 = assay: Antiproliferative activity against human SF295 cells assessed as cell growth at 10^-5 M after 48 hrs by SRB assay relative to control; conditions: SF-295, 48 h, read-out: Activity
SF-539 = assay: Antiproliferative activity against human SF539 cells assessed as cell growth at 10^-5 M after 48 hrs by SRB assay relative to control; conditions: SF-539, 48 h, read-out: Activity
SNB-75 = assay: Antiproliferative activity against human SNB75 cells assessed as cell growth at 10^-5 M after 48 hrs by SRB assay relative to control; conditions: SNB-75, 48 h, read-out: Activity
U-251 = assay: Antiproliferative activity against human U251 cells assessed as cell growth at 10^-5 M after 48 hrs by SRB assay relative to control; conditions: U-251, 48 h, read-out: Activity
IGROV-1 = assay: Antiproliferative activity against human IGROV1 cells assessed as cell growth at 10^-5 M after 48 hrs by SRB assay relative to control; conditions: IGROV-1, 48 h, read-out: Activity
OVCAR-3 = assay: Antiproliferative activity against human OVCAR3 cells assessed as cell growth at 10^-5 M after 48 hrs by SRB assay relative to control; conditions: OVCAR-3, 48 h, read-out: Activity
NCI/ADR-RES = assay: Antiproliferative activity against human NCI/ADR-RES cells assessed as cell growth at 10^-5 M after 48 hrs by SRB assay relative to control; conditions: read-out: Activity
SK-OV-3 = assay: Antiproliferative activity against human SKOV3 cells assessed as cell growth at 10^-5 M after 48 hrs by SRB assay relative to control; conditions: SK-OV-3, 48 h, read-out: Activity
786-0 = assay: Antiproliferative activity against human 786-0 cells assessed as cell growth at 10^-5 M after 48 hrs by SRB assay relative to control; conditions: 786-0, 48 h, read-out: Activity
ACHN = assay: Antiproliferative activity against human ACHN cells assessed as cell growth at 10^-5 M after 48 hrs by SRB assay relative to control; conditions: read-out: Activity
RXF 393 = assay: Antiproliferative activity against human RXF393 cells assessed as cell growth at 10^-5 M after 48 hrs by SRB assay relative to control; conditions: RXF 393, 48 h, read-out: Activity
TK-10 = assay: Antiproliferative activity against human TK10 cells assessed as cell growth at 10^-5 M after 48 hrs by SRB assay relative to control; conditions: TK-10, 48 h, read-out: Activity
PC-3 = assay: Antiproliferative activity against human PC3 cells assessed as cell growth at 10^-5 M after 48 hrs by SRB assay relative to control; conditions: PC-3, 48 h, read-out: Activity
DU-145 = assay: Antiproliferative activity against human DU145 cells assessed as cell growth at 10^-5 M after 48 hrs by SRB assay relative to control; conditions: DU-145, 48 h, read-out: Activity
MCF7 = assay: Antiproliferative activity against human MCF7 cells assessed as cell growth at 10^-5 M after 48 hrs by SRB assay relative to control; conditions: MCF7, 48 h, read-out: Activity
MDA-MB-231 = assay: Antiproliferative activity against human MDA-MB-231 cells assessed as cell growth at 10^-5 M after 48 hrs by SRB assay relative to control; conditions: MDA-MB-231, 48 h, read-out: Activity
[1] = Antiproliferative activity against human Hs 578T cells assessed as cell growth at 10^-5 M after 48 hrs by SRB assay relative to control; conditions: read-out: Activity
BT-549 = assay: Antiproliferative activity against human BT549 cells assessed as cell growth at 10^-5 M after 48 hrs by SRB assay relative to control; conditions: BT-549, 48 h, read-out: Activity
LOX IMVI = assay: Antiproliferative activity against human LOXIMVI cells assessed as cell growth at 10^-5 M after 48 hrs by SRB assay relative to control; conditions: read-out: Activity
SK-MEL-5 = assay: Antiproliferative activity against human SK-MEL-5 cells assessed as cell growth at 10^-5 M after 48 hrs by SRB assay relative to control; conditions: SK-MEL-5, 48 h, read-out: Activity

Cc1cc(O)c(C2=NN(c3ccc(S(N)(=O)=O)cc3)C(c3ccc(N(C)C)cc3)C2)c(C)c1Cl (centres undefined)
inhibition in vivo at 20 mg/kg (Rattus norvegicus): 33%
growth at 10 µM (CCRF-CEM): 11.6%
growth at 10 µM (HL-60(TB)): 18.4%
growth at 10 µM (K562): 21%
growth at 10 µM (SR): -24.1%
growth at 10 µM (HOP-62): 84.3%
growth at 10 µM (NCI-H226): 106%
growth at 10 µM (NCI-H322M): 75.3%
growth at 10 µM (NCI-H460): 3.35%
growth at 10 µM (HCT-116): 55.1%
growth at 10 µM (HCT-15): 65.2%
growth at 10 µM (KM12): 29.1%
growth at 10 µM (SW-620): 48.5%
growth at 10 µM (SF-268): 61.7%
growth at 10 µM (SF-295): 20.4%
growth at 10 µM (SF-539): 79%
growth at 10 µM (SNB-75): 67.4%
growth at 10 µM (U-251): 70%
growth at 10 µM (IGROV-1): 20.6%
growth at 10 µM (OVCAR-3): 68%
growth at 10 µM (NCI/ADR-RES): 80.3%
growth at 10 µM (SK-OV-3): 81.6%
growth at 10 µM (786-0): 43.3%
growth at 10 µM (ACHN): 58.7%
growth at 10 µM (RXF 393): 48.1%
growth at 10 µM (TK-10): 80%
growth at 10 µM (PC-3): 12.1%
growth at 10 µM (DU-145): 49.3%
growth at 10 µM (MCF7): 13%
growth at 10 µM (MDA-MB-231): 59%
growth at 10 µM [1]: 71.2%
growth at 10 µM (BT-549): 112%
growth at 10 µM (LOX IMVI): 52.4%
growth at 10 µM (SK-MEL-5): 81.7%
